Measurements as given in ChEMBL document CHEMBL1145891, “Design and synthesis of trans-3-(2-(4-((3-(3-(5-methyl-1,2,4-oxadiazolyl))- phenyl)carboxamido)cyclohexyl)ethyl)-7-methylsulfonyl-2,3,4,5-tetrahydro-1H-3-benzazepine (SB-414796): a potent and selective dopamine D3 receptor antagonist” (J Med Chem, 2003).

Key:
D(3) dopamine receptor = D(3) dopamine receptor (Homo sapiens, UniProt P35462); test: Binding affinity against human Dopamine receptor D3 expressed in CHO cells by using [125I]iodosulpiride as radioligand; assay type: cell-based
D(2) dopamine receptor = D(2) dopamine receptor (Homo sapiens, UniProt P14416); test: Binding affinity against human Dopamine receptor D2 expressed in CHO cells by using [125I]iodosulpiride as radioligand; assay type: cell-based
Chain of D(2) dopamine receptor (P14416 whole entry): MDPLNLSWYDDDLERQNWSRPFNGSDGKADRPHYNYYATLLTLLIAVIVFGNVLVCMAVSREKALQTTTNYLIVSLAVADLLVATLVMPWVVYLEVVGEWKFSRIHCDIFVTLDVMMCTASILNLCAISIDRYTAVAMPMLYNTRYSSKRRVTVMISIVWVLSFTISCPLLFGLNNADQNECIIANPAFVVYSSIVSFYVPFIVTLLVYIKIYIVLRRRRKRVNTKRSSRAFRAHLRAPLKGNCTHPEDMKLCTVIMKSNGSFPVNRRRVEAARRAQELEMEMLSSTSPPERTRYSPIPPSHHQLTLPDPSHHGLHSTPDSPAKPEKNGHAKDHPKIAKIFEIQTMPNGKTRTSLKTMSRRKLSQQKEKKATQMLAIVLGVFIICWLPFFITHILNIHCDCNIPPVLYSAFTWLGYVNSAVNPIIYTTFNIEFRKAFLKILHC

Chain of D(3) dopamine receptor (P35462 whole entry): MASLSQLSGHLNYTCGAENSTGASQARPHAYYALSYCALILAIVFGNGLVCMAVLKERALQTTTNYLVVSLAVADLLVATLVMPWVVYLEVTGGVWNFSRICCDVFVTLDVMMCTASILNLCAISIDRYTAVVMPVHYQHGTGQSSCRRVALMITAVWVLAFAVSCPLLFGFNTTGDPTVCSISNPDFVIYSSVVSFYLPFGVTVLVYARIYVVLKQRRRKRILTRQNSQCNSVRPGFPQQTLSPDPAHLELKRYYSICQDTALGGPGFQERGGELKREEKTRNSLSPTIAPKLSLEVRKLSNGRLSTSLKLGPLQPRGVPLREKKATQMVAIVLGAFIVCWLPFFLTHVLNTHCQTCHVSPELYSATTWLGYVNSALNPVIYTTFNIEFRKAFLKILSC

Row | SMILES | Ki (D(3) dopamine receptor) | Ki (D(2) dopamine receptor)
1 | Cn1nccc1-c1cccc(C(=O)N[C@H]2CC[C@H](CCN3CCc4ccc(S(C)(=O)=O)cc4CC3)CC2)c1 | 3.16 nM | 501 nM
2 | Cc1cc(C(=O)N[C@H]2CC[C@H](CCN3CCc4ccc(OS(C)(=O)=O)cc4CC3)CC2)c2ccccc2n1 | 20 nM | 631 nM
3 | CS(=O)(=O)Oc1ccc2c(c1)CCN(CC[C@H]1CC[C@H](NC(=O)c3cccc(-n4cccc4)c3)CC1)CC2 | 3.16 nM | 251 nM
4 | Cc1coc(-c2cccc(C(=O)N[C@H]3CC[C@H](CCN4CCc5ccc(OS(C)(=O)=O)cc5CC4)CC3)c2)n1 | 3.16 nM | 200 nM
5 | CS(=O)(=O)c1ccc2c(c1)CCN(CC[C@H]1CC[C@H](NC(=O)/C=C/c3ccc(C#N)cc3)CC1)CC2 | 2 nM | 126 nM
6 | CS(=O)(=O)Oc1ccc2c(c1)CCN(CC[C@H]1CC[C@H](NC(=O)c3cccc(-c4ncccn4)c3)CC1)CC2 | 2 nM | 316 nM
7 | Cc1cnc(-c2cccc(C(=O)N[C@H]3CC[C@H](CCN4CCc5ccc(S(C)(=O)=O)cc5CC4)CC3)c2)o1 | 7.94 nM | 631 nM
8 | Cc1cc(-c2cccc(C(=O)N[C@H]3CC[C@H](CCN4CCc5ccc(S(C)(=O)=O)cc5CC4)CC3)c2)on1 | 3.98 nM | 501 nM
9 | CS(=O)(=O)Oc1ccc2c(c1)CCN(CC[C@H]1CC[C@H](NC(=O)c3cccc4ncccc34)CC1)CC2 | 2 nM | 200 nM
10 | Cc1ncc(-c2cccc(C(=O)N[C@H]3CC[C@H](CCN4CCc5ccc(S(C)(=O)=O)cc5CC4)CC3)c2)o1 | 6.31 nM | 631 nM
11 | Cc1ccc2c(C(=O)N[C@H]3CC[C@H](CCN4CCc5ccc(S(C)(=O)=O)cc5CC4)CC3)ccc(F)c2n1 | 3.16 nM | 794 nM
12 | CS(=O)(=O)c1ccc2c(c1)CCN(CC[C@H]1CC[C@H](NC(=O)/C=C/c3cccc(C#N)c3)CC1)CC2 | 2 nM | 158 nM
13 | CS(=O)(=O)c1ccc2c(c1)CCN(CC[C@H]1CC[C@H](NC(=O)/C=C/c3cc(F)cc(F)c3)CC1)CC2 | 2 nM | 251 nM
14 | Cc1cnc(-c2cccc(C(=O)N[C@H]3CC[C@H](CCN4CCc5ccc(OS(C)(=O)=O)cc5CC4)CC3)c2)o1 | 3.16 nM | 316 nM
15 | Cc1nc(-c2cccc(C(=O)N[C@H]3CC[C@H](CCN4CCc5ccc(OS(C)(=O)=O)cc5CC4)CC3)c2)no1 | 2.51 nM | 200 nM
16 | CS(=O)(=O)Oc1ccc2c(c1)CCN(CC[C@H]1CC[C@H](NC(=O)c3cccc4ccccc34)CC1)CC2 | 2.51 nM | 316 nM
17 | Cc1ccc2c(C(=O)N[C@H]3CC[C@H](CCN4CCc5ccc(S(C)(=O)=O)cc5CC4)CC3)cccc2n1 | 3.98 nM | 316 nM
18 | CS(=O)(=O)c1ccc2c(c1)CCN(CC[C@H]1CC[C@H](NC(=O)/C=C/c3c(F)cccc3F)CC1)CC2 | 2.51 nM | 398 nM

More lines, now with the values ahead:

Row | Ki (D(3) dopamine receptor) | Ki (D(2) dopamine receptor) | SMILES
19 | 1.26 nM | 100 nM | COc1ccccc1/C=C/C(=O)N[C@H]1CC[C@H](CCN2CCc3ccc(OS(C)(=O)=O)cc3CC2)CC1
20 | 1 nM | 79.4 nM | CS(=O)(=O)c1ccc2c(c1)CCN(CC[C@H]1CC[C@H](NC(=O)/C=C/c3ccc(F)cc3)CC1)CC2
21 | 2 nM | 63.1 nM | COc1cccc(/C=C/C(=O)N[C@H]2CC[C@H](CCN3CCc4ccc(OS(C)(=O)=O)cc4CC3)CC2)c1
22 | 2 nM | 158 nM | Cc1cc(-c2cccc(C(=O)N[C@H]3CC[C@H](CCN4CCc5ccc(OS(C)(=O)=O)cc5CC4)CC3)c2)on1
23 | 1.26 nM | 126 nM | CS(=O)(=O)c1ccc2c(c1)CCN(CC[C@H]1CC[C@H](NC(=O)/C=C/c3ccccc3F)CC1)CC2
24 | 1.26 nM |  | CS(=O)(=O)Oc1ccc2c(c1)CCN(CC[C@H]1CC[C@H](NC(=O)/C=C/c3cccc(F)c3)CC1)CC2
25 | 1 nM | 31.6 nM | COc1ccc(/C=C/C(=O)N[C@H]2CC[C@H](CCN3CCc4ccc(OS(C)(=O)=O)cc4CC3)CC2)cc1
26 | 1.58 nM | 158 nM | CS(=O)(=O)c1ccc2c(c1)CCN(CC[C@H]1CC[C@H](NC(=O)/C=C/c3ccccc3C#N)CC1)CC2
27 | 1.58 nM | 126 nM | CS(=O)(=O)c1ccc2c(c1)CCN(CC[C@H]1CC[C@H](NC(=O)/C=C/c3cccc(F)c3)CC1)CC2
28 | 1.26 nM | 200 nM | Cc1ncc(-c2cccc(C(=O)N[C@H]3CC[C@H](CCN4CCc5ccc(OS(C)(=O)=O)cc5CC4)CC3)c2)o1
29 | 1.26 nM |  | CS(=O)(=O)Oc1ccc2c(c1)CCN(CC[C@H]1CC[C@H](NC(=O)/C=C/c3ccccc3F)CC1)CC2
30 | 0.794 nM | 63.1 nM | CS(=O)(=O)Oc1ccc2c(c1)CCN(CC[C@H]1CC[C@H](NC(=O)/C=C/c3ccc(F)cc3)CC1)CC2
31 | 1.26 nM | 200 nM | Cc1ccc2c(C(=O)N[C@H]3CC[C@H](CCN4CCc5ccc(OS(C)(=O)=O)cc5CC4)CC3)cccc2n1
